# Assay results reported in patent US7652018B2, “Imidazolidin-2-one derivatives useful as PR modulators” (Wyeth LLC, priority 2006, dated 2010).
# Target: T1, progesterone receptor (Homo sapiens, UniProt P06401)
# T1 construct: determining a compound's effect on alkaline phosphatase activity in T47D cells; endogenous in cells; host or cells: T47D cells
# T1 sequence (P06401 1-933): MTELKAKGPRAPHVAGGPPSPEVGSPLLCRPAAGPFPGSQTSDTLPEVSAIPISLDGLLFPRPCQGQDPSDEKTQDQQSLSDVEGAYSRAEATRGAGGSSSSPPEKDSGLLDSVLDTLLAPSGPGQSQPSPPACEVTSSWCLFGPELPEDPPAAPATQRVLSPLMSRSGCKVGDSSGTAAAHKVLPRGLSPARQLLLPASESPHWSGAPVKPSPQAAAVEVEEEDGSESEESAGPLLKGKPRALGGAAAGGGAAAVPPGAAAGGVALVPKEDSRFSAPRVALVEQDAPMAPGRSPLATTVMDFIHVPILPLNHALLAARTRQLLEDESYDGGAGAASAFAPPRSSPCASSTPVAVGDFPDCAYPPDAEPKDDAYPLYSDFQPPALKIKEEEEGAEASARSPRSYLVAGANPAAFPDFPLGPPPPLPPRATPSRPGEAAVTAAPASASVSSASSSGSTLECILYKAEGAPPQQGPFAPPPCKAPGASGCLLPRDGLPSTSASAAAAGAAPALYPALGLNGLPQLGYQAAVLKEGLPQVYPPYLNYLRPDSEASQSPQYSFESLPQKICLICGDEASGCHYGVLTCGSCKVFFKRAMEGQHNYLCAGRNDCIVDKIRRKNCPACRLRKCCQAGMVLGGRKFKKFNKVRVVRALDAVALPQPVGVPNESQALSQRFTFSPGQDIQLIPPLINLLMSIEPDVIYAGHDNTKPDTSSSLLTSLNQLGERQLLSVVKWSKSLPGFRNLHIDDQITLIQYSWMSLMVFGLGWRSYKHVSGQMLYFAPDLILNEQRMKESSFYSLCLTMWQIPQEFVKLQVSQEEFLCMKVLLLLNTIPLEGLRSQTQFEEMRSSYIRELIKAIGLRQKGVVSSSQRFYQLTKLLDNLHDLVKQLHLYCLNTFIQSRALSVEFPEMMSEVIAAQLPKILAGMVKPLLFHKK
# Assay: Alkaline phosphatase activity in T47D cells (progestin antagonist mode)
# Assay type: cell-based
# Conditions: in the presence of 1 nM progesterone, 24 h, read-out: T47D Alkaline Phosphatase Activity IC50 (nM) or % inhibition
# Protocol: (1) Effects of Progestins and Antiprogestins on Alkaline Phosphatase Activity in T47D Cells
# PURPOSE: To identify progestins or antiprogestins by determining a compound's effect on alkaline phosphatase activity in T47D cells.
# Culture medium: • DMEM:F12 (1:1) (GIBCO, BRL) supplemented with 5% (v/v) charcoal stripped fetal bovine serum (not heat-inactivated), 100 U/mL penicillin, 100 μg/mL streptomycin, and 2 mM the GlutaMax™ reagent (GIBCO, BRL).
# Alkaline phosphatase assay buffer: • I. 0.1M Tris-HCl, pH 9.8, containing 0.2% the Triton® X-100 reagent • II. 0.1M Tris-HCl, pH 9.8, containing 4 mM p-nitrophenyl phosphate (Sigma). B. Cell Culture and Treatment:
# Frozen T47D cells were thawed in a 37° C. water bath and diluted to 280,000 cells/mL in culture medium. To each well in a 96-well plate (Falcon, Becton Dickinson Labware), 180 μL of diluted cell suspension was added.
# Twenty μL of reference or test compounds diluted in the culture medium was then added to each well. When testing for progestin antagonist activity, reference antiprogestins or test compounds were added in the presence of 1 nM progesterone. The cells were incubated at 37° C. in a 5% CO2/humidified atmosphere for 24 h.
# NOTE: For high throughput screening, one concentration of each compound was tested at 0.3 μg/mL. Based on an average molecular weight of 300 g/mol for the compounds in the library, the concentration was approximately 1 μM. Subsequently, active compounds were tested in dose response assays to determine EC50 and IC50. C. Alkaline Phosphatase Enzyme Assay:
# At the end of treatment, the medium was removed from the plate. Fifty μL of assay buffer I was added to each well. The plates were shaken in a titer plate shaker for 15 min. Then 150 μL of assay buffer II was added to each well. Optical density measurements were taken at 5 min intervals for 30 min at a test wavelength of 405 nm.
# For reference and test compounds, a dose response curve was generated for dose (X-axis) vs. the rate of enzyme reaction (slope) (Y-axis). Square root-transformed data was used for analysis of variance and nonlinear dose response curve fitting for both agonist and antagonist modes. Huber weighting was used to down-weight the effects of outliers. EC50 or IC50 values were calculated from the retransformed values. JMP software (SAS Institute, Inc.) was used for both one-way analysis of variance and non-linear dose response analysis in both single dose and dose response studies.
# Progesterone and trimegestone were reference progestins and RU486 was the reference antiprogestin. All reference compounds were run in full dose response curves and the EC50 and IC50 values were calculated.
row,SMILES,IC50 [nM]
1,"CN1CCN(c2nc(-c3ccc(Br)cc3)cs2)C1=O [Example 5, 1-[4-(4-Bromophenyl)-1,3-thiazol-2-yl]-3-methylimidazolidin-2-one]",733
2,"CC1(C)CN(Cc2ccccc2)C(=O)N1c1nc(-c2ccc(C#N)cc2)cs1 [Example 9, 4-[2-(3-Benzyl-5,5-dimethyl-2-oxoimidazolidin-1-yl)-1,3-thiazol-4-yl]benzonitrile]",77.9
3,"O=C1NCCN1c1nc(-c2ccc(Br)cc2)cs1 [Example 4, 1-[4-(4-Bromophenyl)-1,3-thiazol-2-yl]imidazolidin-2-one]",1070
4,"CN1CC(C)(C)N(c2nc(-c3ccc(C#N)cc3)cs2)C1=O [Example 8, 4-[2-(3,5,5-Trimethyl-2-oxoimidazolidin-1-yl)-1,3-thiazol-4-yl]benzonitrile]",35.4

# Tested on: not given
# Assay: not given
# Conditions: not given
row,SMILES,melting point [°C]
1,"CC1(C)COC(=O)N1c1nc(-c2cccc(C#N)c2)cs1 [Example 3, 3-[2-(4,4-dimethyl-2-oxo-1,3-oxazolidin-3-yl)-1,3-thiazol-4-yl]benzonitrile]",181 to 183
2,"CCC1(CC)COC(=O)N1c1nc(-c2ccc(C#N)cc2)cs1 [Example 2, 4-[2-(4,4-Diethyl-2-oxo-1,3-oxazolidin-3-yl)-1,3-thiazol-4-yl]benzonitrile]",145 to 147
3,"C[C@@H]1COC(=O)N1c1nc(-c2ccc(Br)cc2)cs1 [Example 1, (4R)-3-[4-(4-Bromophenyl)-1,3-thiazol-2-yl]-4-methyl-1,3-oxazolidin-2-one]",197 to 199
4,"O=C1NCCN1c1nc(-c2ccc(Br)cc2)cs1 [Example 4, 1-[4-(4-Bromophenyl)-1,3-thiazol-2-yl]imidazolidin-2-one]",230 to 233
